For the first data set, the target named is T1, Thromboxane-A synthase (Homo sapiens, UniProt P24557).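 Further: enzyme inhibition assay with PGH2 supplied as substrate; in other assays of this panel Not Active means under 50% inhibition at 10 µM.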
T1 sequence (P24557 whole entry): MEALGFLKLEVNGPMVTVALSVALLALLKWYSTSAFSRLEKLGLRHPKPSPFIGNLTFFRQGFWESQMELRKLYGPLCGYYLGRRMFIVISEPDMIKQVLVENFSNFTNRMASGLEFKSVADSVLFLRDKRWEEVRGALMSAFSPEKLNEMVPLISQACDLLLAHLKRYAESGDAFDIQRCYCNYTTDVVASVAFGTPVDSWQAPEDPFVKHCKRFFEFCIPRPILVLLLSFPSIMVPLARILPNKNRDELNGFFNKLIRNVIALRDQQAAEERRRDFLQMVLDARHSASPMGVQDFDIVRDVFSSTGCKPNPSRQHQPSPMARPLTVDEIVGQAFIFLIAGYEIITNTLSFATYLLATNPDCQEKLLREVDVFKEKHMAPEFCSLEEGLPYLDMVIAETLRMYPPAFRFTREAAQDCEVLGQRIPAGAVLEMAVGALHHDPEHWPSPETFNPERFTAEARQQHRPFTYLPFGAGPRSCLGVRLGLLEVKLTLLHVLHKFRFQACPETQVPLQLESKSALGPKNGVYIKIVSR
In words: biochemical. It is filed as tissue-based, Platelet. Particulars: platelet.
Acetylcholinesterase, sequence (P22303 whole entry): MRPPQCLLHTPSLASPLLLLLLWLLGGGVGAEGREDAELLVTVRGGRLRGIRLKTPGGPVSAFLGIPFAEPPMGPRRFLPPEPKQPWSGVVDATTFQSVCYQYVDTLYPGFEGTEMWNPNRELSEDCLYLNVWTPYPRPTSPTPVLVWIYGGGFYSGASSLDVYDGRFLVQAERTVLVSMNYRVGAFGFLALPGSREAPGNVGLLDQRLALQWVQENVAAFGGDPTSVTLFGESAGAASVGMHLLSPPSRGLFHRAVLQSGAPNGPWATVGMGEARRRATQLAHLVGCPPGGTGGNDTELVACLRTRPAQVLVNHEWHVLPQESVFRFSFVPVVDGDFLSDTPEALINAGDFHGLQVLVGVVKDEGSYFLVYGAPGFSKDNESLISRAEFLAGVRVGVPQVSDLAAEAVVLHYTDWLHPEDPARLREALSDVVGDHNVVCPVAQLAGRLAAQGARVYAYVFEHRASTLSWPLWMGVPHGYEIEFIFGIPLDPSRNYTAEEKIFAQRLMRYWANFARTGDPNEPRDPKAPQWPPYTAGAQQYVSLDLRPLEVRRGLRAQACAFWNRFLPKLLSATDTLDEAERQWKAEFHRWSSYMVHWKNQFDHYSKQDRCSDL
Vasopressin V1a receptor, sequence (P37288 whole entry): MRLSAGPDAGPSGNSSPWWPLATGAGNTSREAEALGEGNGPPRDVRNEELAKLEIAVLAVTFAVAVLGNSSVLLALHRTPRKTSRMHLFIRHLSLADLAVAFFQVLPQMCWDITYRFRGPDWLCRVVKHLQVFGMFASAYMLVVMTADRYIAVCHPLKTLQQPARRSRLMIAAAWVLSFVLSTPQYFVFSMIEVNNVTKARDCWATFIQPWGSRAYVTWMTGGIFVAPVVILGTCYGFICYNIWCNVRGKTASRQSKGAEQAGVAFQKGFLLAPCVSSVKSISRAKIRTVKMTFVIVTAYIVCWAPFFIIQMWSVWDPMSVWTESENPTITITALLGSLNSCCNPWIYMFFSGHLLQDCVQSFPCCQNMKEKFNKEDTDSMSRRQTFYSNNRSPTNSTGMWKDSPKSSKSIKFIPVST
Cytochrome P450 2C19, sequence (P33261 whole entry): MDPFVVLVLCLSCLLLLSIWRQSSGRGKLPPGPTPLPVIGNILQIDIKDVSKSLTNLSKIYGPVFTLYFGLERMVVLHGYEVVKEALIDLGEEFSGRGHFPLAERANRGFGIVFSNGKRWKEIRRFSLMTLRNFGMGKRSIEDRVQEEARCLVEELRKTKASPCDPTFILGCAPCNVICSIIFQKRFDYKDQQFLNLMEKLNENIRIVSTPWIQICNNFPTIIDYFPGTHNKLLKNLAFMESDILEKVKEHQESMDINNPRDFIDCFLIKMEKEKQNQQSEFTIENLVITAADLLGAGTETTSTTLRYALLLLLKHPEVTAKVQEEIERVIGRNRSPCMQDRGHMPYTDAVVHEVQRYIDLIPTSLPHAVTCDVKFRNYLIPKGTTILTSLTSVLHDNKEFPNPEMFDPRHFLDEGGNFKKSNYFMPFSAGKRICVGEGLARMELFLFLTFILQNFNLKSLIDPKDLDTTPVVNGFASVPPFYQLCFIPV
On to `C[C@]12CCC(=O)C=C1CC[C@@H]1[C@@H]2C(=O)C[C@@]2(C)[C@H]1CC[C@]2(O)C(=O)CO` [CORTISONE], for which the IC50 entry is reported as “Not Active”.

Take `CCCc1cc(=O)[nH]c(=S)[nH]1` [PROPYLTHIOURACIL]: the IC50 result was “Not Active”.

Take `CC(=O)OCC(=O)[C@@]1(OC(C)=O)[C@@H](C)C[C@H]2[C@@H]3C[C@H](F)C4=CC(=O)C=C[C@]4(C)[C@@]3(F)[C@@H](O)C[C@@]21C` [DIFLORASONE DIACETATE]: the IC50 result is recorded as “Not Active”.

With `Oc1cccc2cccnc12` [OXYQUINOLINE], the IC50 result is reported as “Not Active”.

A further data set concerns the target Vasopressin V1a receptor (Homo sapiens, UniProt P37288). Further: in other assays of this panel Not Active means under 50% inhibition at 10 µM.
Test: not given
It is filed as cell membranes, Membrane. Particulars: hek293.
Regarding `C[C@]12CCC(=O)C=C1CC[C@@H]1[C@@H]2C(=O)C[C@@]2(C)[C@H]1CC[C@]2(O)C(=O)CO` [CORTISONE], the IC50 result is on record as “Not Active”.

`CCCc1cc(=O)[nH]c(=S)[nH]1` [PROPYLTHIOURACIL]: the IC50 result is “Not Active”.

Turning to `CC(=O)OCC(=O)[C@@]1(OC(C)=O)[C@@H](C)C[C@H]2[C@@H]3C[C@H](F)C4=CC(=O)C=C[C@]4(C)[C@@]3(F)[C@@H](O)C[C@@]21C` [DIFLORASONE DIACETATE], the IC50 entry is “Not Active”.

`Oc1cccc2cccnc12` [OXYQUINOLINE]: the IC50 entry is recorded as “Not Active”.

For a further data set, the target named is Carbonic anhydrase 2 (Homo sapiens, UniProt P00918). In words: DRUGMATRIX: Carbonic Anhydrase II enzyme inhibition (substrate: 4-Nitrophenyl acetate (4-NPA)). It is filed as tissue-based, Erythrocyte. To be noted: erythrocyte; Not Active = under 50% inhibition at 10 µM.
Regarding `C[C@]12CCC(=O)C=C1CC[C@@H]1[C@@H]2C(=O)C[C@@]2(C)[C@H]1CC[C@]2(O)C(=O)CO` [CORTISONE], the IC50 entry is “Not Active”.

`CCCc1cc(=O)[nH]c(=S)[nH]1` [PROPYLTHIOURACIL]: the IC50 result is “Not Active”.

In the case of `CC(=O)OCC(=O)[C@@]1(OC(C)=O)[C@@H](C)C[C@H]2[C@@H]3C[C@H](F)C4=CC(=O)C=C[C@]4(C)[C@@]3(F)[C@@H](O)C[C@@]21C` [DIFLORASONE DIACETATE], the IC50 entry was “Not Active”.

With `Oc1cccc2cccnc12` [OXYQUINOLINE], the IC50 result is reported as “Not Active”.

A further data set deals with T2, Neuropeptide Y receptor type 2 (Homo sapiens, UniProt P49146).
T2 sequence (P49146 whole entry): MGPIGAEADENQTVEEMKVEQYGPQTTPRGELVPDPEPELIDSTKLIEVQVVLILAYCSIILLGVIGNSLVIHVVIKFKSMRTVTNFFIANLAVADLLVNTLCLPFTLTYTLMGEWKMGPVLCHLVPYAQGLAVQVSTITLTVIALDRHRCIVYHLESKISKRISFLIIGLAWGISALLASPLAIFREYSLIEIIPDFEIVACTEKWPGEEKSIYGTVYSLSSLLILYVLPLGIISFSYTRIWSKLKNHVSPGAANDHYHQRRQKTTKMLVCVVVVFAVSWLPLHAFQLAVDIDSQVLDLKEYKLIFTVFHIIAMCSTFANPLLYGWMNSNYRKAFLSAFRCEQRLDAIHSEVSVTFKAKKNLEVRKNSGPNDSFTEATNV
Test: not given
Particulars: kan-ts. The data set is classed as cell membranes, Membrane.
`C[C@]12CCC(=O)C=C1CC[C@@H]1[C@@H]2C(=O)C[C@@]2(C)[C@H]1CC[C@]2(O)C(=O)CO` [CORTISONE]: the IC50 result is “Not Active”.

Turning to `CCCc1cc(=O)[nH]c(=S)[nH]1` [PROPYLTHIOURACIL], the IC50 entry was “Not Active”.

`CC(=O)OCC(=O)[C@@]1(OC(C)=O)[C@@H](C)C[C@H]2[C@@H]3C[C@H](F)C4=CC(=O)C=C[C@]4(C)[C@@]3(F)[C@@H](O)C[C@@]21C` [DIFLORASONE DIACETATE]: the IC50 result is recorded as “Not Active”.

Regarding `Oc1cccc2cccnc12` [OXYQUINOLINE], the IC50 result was “Not Active”.

A further data set has as its target Acetylcholinesterase (Homo sapiens, UniProt P22303). In words: DRUGMATRIX: Acetylcholinesterase enzyme inhibition (substrate: acetylthiocholine). To be noted: hek293; Not Active = under 50% inhibition at 10 µM. It is filed as cell-based, HEK293.
As to `C[C@]12CCC(=O)C=C1CC[C@@H]1[C@@H]2C(=O)C[C@@]2(C)[C@H]1CC[C@]2(O)C(=O)CO` [CORTISONE], the IC50 entry is reported as “Not Active”.

For the compound `CCCc1cc(=O)[nH]c(=S)[nH]1` [PROPYLTHIOURACIL], the IC50 entry was “Not Active”.

Take `CC(=O)OCC(=O)[C@@]1(OC(C)=O)[C@@H](C)C[C@H]2[C@@H]3C[C@H](F)C4=CC(=O)C=C[C@]4(C)[C@@]3(F)[C@@H](O)C[C@@]21C` [DIFLORASONE DIACETATE]: the IC50 result was “Not Active”.

Regarding `Oc1cccc2cccnc12` [OXYQUINOLINE], the IC50 result is “Not Active”.

The target in another data set is T3, Cytochrome P450 1A2 (Homo sapiens, UniProt P05177). Further: in other assays of this panel Not Active means under 50% inhibition at 10 µM.
T3 sequence (P05177 whole entry): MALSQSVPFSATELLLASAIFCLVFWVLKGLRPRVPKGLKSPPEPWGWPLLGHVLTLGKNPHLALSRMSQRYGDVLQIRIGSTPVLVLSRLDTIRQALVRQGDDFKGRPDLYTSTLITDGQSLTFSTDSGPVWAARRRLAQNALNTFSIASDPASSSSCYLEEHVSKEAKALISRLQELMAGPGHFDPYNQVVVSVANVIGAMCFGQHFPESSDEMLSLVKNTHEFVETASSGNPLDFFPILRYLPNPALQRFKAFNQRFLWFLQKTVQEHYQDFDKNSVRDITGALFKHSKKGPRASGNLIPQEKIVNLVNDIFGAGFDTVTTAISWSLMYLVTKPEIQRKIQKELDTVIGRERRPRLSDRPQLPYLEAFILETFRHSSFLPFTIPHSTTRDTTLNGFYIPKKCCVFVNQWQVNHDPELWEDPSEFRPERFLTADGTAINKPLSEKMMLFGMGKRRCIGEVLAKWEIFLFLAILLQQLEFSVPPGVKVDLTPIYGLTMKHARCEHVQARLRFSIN
Test: not given
To be noted: bti-tn-5b1-4.
Take `C[C@]12CCC(=O)C=C1CC[C@@H]1[C@@H]2C(=O)C[C@@]2(C)[C@H]1CC[C@]2(O)C(=O)CO` [CORTISONE]: the IC50 result is “Not Active” and the Ki entry is “Not Active”.

For `CCCc1cc(=O)[nH]c(=S)[nH]1` [PROPYLTHIOURACIL], the IC50 result is “Not Active” and the Ki result was “Not Active”.

Consider `CC(=O)OCC(=O)[C@@]1(OC(C)=O)[C@@H](C)C[C@H]2[C@@H]3C[C@H](F)C4=CC(=O)C=C[C@]4(C)[C@@]3(F)[C@@H](O)C[C@@]21C` [DIFLORASONE DIACETATE], for which the IC50 result is recorded as “Not Active” and the Ki result is given as “Not Active”.

Consider `Oc1cccc2cccnc12` [OXYQUINOLINE], for which the IC50 result is recorded as “Not Active” and the Ki result is reported as “Not Active”.

The target in a further data set is T4, Cytochrome P450 2A6 (Homo sapiens, UniProt P11509). Further: in other assays of this panel Not Active means under 50% inhibition at 10 µM.
T4 sequence (P11509 whole entry): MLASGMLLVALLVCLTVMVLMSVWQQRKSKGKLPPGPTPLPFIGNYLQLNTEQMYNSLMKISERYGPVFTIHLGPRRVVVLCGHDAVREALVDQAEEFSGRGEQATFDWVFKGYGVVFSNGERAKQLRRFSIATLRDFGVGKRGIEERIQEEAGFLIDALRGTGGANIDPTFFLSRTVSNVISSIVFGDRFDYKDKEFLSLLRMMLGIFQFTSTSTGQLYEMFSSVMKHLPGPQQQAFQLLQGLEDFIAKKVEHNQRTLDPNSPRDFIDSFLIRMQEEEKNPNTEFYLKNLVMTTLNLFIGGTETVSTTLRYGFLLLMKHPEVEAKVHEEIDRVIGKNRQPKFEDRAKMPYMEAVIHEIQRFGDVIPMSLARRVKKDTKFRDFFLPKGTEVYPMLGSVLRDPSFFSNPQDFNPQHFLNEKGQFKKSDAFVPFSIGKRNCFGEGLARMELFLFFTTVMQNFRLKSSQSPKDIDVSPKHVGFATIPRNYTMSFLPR
Test: not given
To be noted: bti-tn-5b1-4.
As to `C[C@]12CCC(=O)C=C1CC[C@@H]1[C@@H]2C(=O)C[C@@]2(C)[C@H]1CC[C@]2(O)C(=O)CO` [CORTISONE], the IC50 entry is given as “Not Active” and the Ki result is “Not Active”.

For `CCCc1cc(=O)[nH]c(=S)[nH]1` [PROPYLTHIOURACIL], the IC50 result is “Not Active” and the Ki entry is recorded as “Not Active”.

Turning to `CC(=O)OCC(=O)[C@@]1(OC(C)=O)[C@@H](C)C[C@H]2[C@@H]3C[C@H](F)C4=CC(=O)C=C[C@]4(C)[C@@]3(F)[C@@H](O)C[C@@]21C` [DIFLORASONE DIACETATE], the IC50 result is listed as “Not Active” and the Ki entry is listed as “Not Active”.

For the compound `Oc1cccc2cccnc12` [OXYQUINOLINE], the IC50 result was “Not Active” and the Ki result was “Not Active”.

A further data set addresses Cytochrome P450 2C19 (Homo sapiens, UniProt P33261).
Test: not given
Particulars: bti-tn-5b1-4.
Consider `C[C@]12CCC(=O)C=C1CC[C@@H]1[C@@H]2C(=O)C[C@@]2(C)[C@H]1CC[C@]2(O)C(=O)CO` [CORTISONE], for which the IC50 result is listed as “Not Active” and the Ki result is reported as “Not Active”.

Turning to `CCCc1cc(=O)[nH]c(=S)[nH]1` [PROPYLTHIOURACIL], the IC50 result is “Not Active” and the Ki result is “Not Active”.

As for `CC(=O)OCC(=O)[C@@]1(OC(C)=O)[C@@H](C)C[C@H]2[C@@H]3C[C@H](F)C4=CC(=O)C=C[C@]4(C)[C@@]3(F)[C@@H](O)C[C@@]21C` [DIFLORASONE DIACETATE], the IC50 entry is recorded as “Not Active” and the Ki result is “Not Active”.

Regarding `Oc1cccc2cccnc12` [OXYQUINOLINE], the IC50 result is recorded as “Not Active” and the Ki result is given as “Not Active”.

The next data set deals with Cytochrome P450 3A4 (Homo sapiens, UniProt P08684).
Cytochrome P450 3A4, sequence (P08684 whole entry): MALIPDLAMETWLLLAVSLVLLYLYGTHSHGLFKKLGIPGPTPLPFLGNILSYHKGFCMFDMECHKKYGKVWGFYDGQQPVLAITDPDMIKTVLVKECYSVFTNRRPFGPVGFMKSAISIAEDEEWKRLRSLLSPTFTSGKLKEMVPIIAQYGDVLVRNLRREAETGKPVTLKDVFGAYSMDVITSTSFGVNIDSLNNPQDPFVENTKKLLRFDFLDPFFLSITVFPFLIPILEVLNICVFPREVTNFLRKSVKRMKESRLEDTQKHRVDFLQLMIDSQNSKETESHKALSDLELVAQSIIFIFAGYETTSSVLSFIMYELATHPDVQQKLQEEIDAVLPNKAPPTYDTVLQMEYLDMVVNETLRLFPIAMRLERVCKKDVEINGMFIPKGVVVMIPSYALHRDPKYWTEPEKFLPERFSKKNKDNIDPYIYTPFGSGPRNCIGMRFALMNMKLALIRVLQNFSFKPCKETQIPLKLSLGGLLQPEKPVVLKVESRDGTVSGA
Test: not given
Particulars: bti-tn-5b1-4.
With `C[C@]12CCC(=O)C=C1CC[C@@H]1[C@@H]2C(=O)C[C@@]2(C)[C@H]1CC[C@]2(O)C(=O)CO` [CORTISONE], the IC50 result is reported as “Not Active” and the Ki entry is “Not Active”.

For `CCCc1cc(=O)[nH]c(=S)[nH]1` [PROPYLTHIOURACIL], the IC50 result is given as “Not Active” and the Ki result is given as “Not Active”.

Consider `CC(=O)OCC(=O)[C@@]1(OC(C)=O)[C@@H](C)C[C@H]2[C@@H]3C[C@H](F)C4=CC(=O)C=C[C@]4(C)[C@@]3(F)[C@@H](O)C[C@@]21C` [DIFLORASONE DIACETATE], for which the IC50 result is given as “Not Active” and the Ki result was “Not Active”.

With `Oc1cccc2cccnc12` [OXYQUINOLINE], the IC50 result is listed as “Not Active” and the Ki entry is given as “Not Active”.

In the next data set the target is Voltage-gated inwardly rectifying potassium channel KCNH2 (Homo sapiens, UniProt Q12809). Further: in other assays of this panel Not Active means under 50% inhibition at 10 µM.
Voltage-gated inwardly rectifying potassium channel KCNH2, sequence (Q12809 whole entry): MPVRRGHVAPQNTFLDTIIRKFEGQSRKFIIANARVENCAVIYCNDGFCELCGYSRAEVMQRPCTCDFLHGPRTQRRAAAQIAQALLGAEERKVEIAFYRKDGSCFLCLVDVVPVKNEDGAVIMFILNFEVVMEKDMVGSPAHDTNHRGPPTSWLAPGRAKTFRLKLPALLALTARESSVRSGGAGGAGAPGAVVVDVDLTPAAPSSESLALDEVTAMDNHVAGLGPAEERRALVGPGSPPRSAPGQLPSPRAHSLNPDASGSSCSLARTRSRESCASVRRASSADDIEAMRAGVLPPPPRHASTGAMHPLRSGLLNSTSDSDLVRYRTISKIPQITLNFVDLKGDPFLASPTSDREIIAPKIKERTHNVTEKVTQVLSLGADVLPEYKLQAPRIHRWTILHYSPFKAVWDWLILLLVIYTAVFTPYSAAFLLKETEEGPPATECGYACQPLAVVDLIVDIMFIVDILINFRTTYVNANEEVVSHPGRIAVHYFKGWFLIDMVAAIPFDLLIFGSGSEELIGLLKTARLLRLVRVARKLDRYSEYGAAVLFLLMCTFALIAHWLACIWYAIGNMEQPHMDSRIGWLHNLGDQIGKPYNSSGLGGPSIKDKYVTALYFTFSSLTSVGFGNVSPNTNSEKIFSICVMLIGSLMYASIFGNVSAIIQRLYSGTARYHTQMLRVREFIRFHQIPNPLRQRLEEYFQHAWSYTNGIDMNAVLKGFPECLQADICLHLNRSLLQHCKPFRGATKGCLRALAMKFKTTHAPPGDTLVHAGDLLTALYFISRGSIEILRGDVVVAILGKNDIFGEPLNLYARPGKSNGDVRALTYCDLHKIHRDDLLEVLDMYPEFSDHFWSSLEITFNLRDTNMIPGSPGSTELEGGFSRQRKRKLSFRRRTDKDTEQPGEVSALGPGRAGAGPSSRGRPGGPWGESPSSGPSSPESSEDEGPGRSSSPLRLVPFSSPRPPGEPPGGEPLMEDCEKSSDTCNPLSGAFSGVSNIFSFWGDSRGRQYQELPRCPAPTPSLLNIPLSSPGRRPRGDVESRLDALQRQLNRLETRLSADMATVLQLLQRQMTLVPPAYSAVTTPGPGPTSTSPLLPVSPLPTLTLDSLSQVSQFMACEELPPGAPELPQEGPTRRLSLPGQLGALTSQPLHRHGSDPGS
Test: not given
To be noted: hek293.
Regarding `C[C@]12CCC(=O)C=C1CC[C@@H]1[C@@H]2C(=O)C[C@@]2(C)[C@H]1CC[C@]2(O)C(=O)CO` [CORTISONE], the IC50 entry was “Not Active” and the Ki entry is “Not Active”.

As for `CCCc1cc(=O)[nH]c(=S)[nH]1` [PROPYLTHIOURACIL], the IC50 result is “Not Active” and the Ki result was “Not Active”.

Take `CC(=O)OCC(=O)[C@@]1(OC(C)=O)[C@@H](C)C[C@H]2[C@@H]3C[C@H](F)C4=CC(=O)C=C[C@]4(C)[C@@]3(F)[C@@H](O)C[C@@]21C` [DIFLORASONE DIACETATE]: the IC50 entry is recorded as “Not Active” and the Ki result is given as “Not Active”.

`Oc1cccc2cccnc12` [OXYQUINOLINE]: the IC50 result is recorded as “Not Active” and the Ki result is “Not Active”.

Source of the values: ChEMBL document CHEMBL1909046, “DrugMatrix in vitro pharmacology data”.
